Laboratory results: the supplement of paper PMC11061612

Assays:
Experiment in all cases: combination Emax (second highest fraction inhibited in the dose matrix, 72 h); higher = more inhibition; extreme values may be limits of the assay
[1] = system: BV-173 (Chronic Myelogenous Leukemia)
Outline: (§1)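 After 24 hours at 37°C and 5% CO2 in 1536-well plates, cells in DMEM/F12 or RPMI plus 10% FBS received two-drug dose matrices for 72 hours. Viability came from CellTiter-Glo 2.0 luminescence and was scaled as inhibition, anchored at 0 by vehicle wells and at 1 by blank wells. Combination Emax is taken as the second-highest inhibition in the matrix, and Bliss excess as the observed combination effect less EA + EB − EA·EB, with EA and EB the single-agent effects.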

[2] = system: HC-1 (Other Blood Carcinomas)
Outline: as §1

EW-3 (Ewing's Sarcoma) = system: EW-3 (Ewing's Sarcoma)
Outline: as §1

[3] = system: VMRC-LCD (Lung Adenocarcinoma)
Outline: as §1

[4] = system: HuP-T3 (Pancreatic Carcinoma)
Outline: as §1

[5] = system: NCI-H1573 (Lung Adenocarcinoma)
Outline: as §1

NH-12 (Neuroblastoma) = system: NH-12 (Neuroblastoma)
Outline: as §1

[6] = system: DG-75 (Burkitt's Lymphoma)
Outline: as §1

[7] = system: LC4-1 (B-Lymphoblastic Leukemia)
Outline: as §1

[8] = system: SCC-9 (Oral Cavity Carcinoma)
Outline: as §1

[9] = system: KP-2 (Pancreatic Carcinoma)
Outline: as §1

A704 (Kidney Carcinoma) = system: A704 (Kidney Carcinoma)
Outline: as §1

[10] = system: SNU-C1 (Colorectal Carcinoma)
Outline: as §1

[11] = system: H-EMC-SS (Chondrosarcoma)
Outline: as §1

Row | Structure (SMILES) | combination Emax [1] | combination Emax [2] | combination Emax (EW-3 (Ewing's Sarcoma)) | combination Emax [3] | combination Emax [4] | combination Emax [5] | combination Emax (NH-12 (Neuroblastoma)) | combination Emax [6] | combination Emax [7] | combination Emax [8] | combination Emax [9] | combination Emax (A704 (Kidney Carcinoma)) | combination Emax [10] | combination Emax [11]
1 | C[C@@H]1COCCN1c1cc(C2([S@](C)(=N)=O)CC2)nc(-c2ccnc3[nH]ccc23)n1 [AZD6738] + O=C(c1cc(Cc2n[nH]c(=O)c3ccccc23)ccc1F)N1CCN(C(=O)C2CC2)CC1 [Olaparib] (first compound max 10 µM, 7x7, partner max 10 µM) | 0.988 | 0.76 | 0.962 | 0.562 | 0.705 | 0.531 | 0.867 | 0.835 | 0.952 | 0.314 | 0.142 | 0.438 | 0.347 | 0.419
2 | Cc1cc2ncnn2cc1Nc1ncc2c(n1)n(C1CCOCC1)c(=O)n2C [AZD7648] + C=CCn1c(=O)c2cnc(Nc3ccc(N4CCN(C)CC4)cc3)nc2n1-c1cccc(C(C)(C)O)n1 [AZD1775] (first compound max 10 µM, partner max 1 µM) | 0.964 | 0.992 | 0.329 | 0.425 | 0.283 | 0.308 | 0.848 | 0.833 | 0.898 | 0.293 | 0.187 | 0.478 | 0.392 | 0.53
3 | Cc1cc2ncnn2cc1Nc1ncc2c(n1)n(C1CCOCC1)c(=O)n2C [AZD7648] + CCN(CCO)CCCOc1ccc2c(Nc3cc(CC(=O)Nc4cccc(F)c4)[nH]n3)ncnc2c1 [AZD2811] (first compound max 10 µM, 7x7, partner max 1 µM) | 0.964 | 0.737 | 0.397 | 0.619 | 0.161 | 0.214 | 0.667 | 0.475 | 0.839 | 0.342 | 0.0095 | 0.247 | 0.351 | 0.545
4 | Cc1cc2ncnn2cc1Nc1ncc2c(n1)n(C1CCOCC1)c(=O)n2C [AZD7648] + CN(C)CCCOc1ccc(-c2ccc3ncc4c(c3c2)n(C2CCOCC2)c(=O)n4C)cn1 [AZD0156] (first compound max 10 µM, 7x7, partner max 1 µM) | 0.386 | 0.386 | 0.386 | 0.253 | 0.141 | 0.15 | 0.153 | 0.409 | 0.42 | 0.24 | 0.0295 | 0.215 | 0.316 | 0.545
5 | Cc1cc2ncnn2cc1Nc1ncc2c(n1)n(C1CCOCC1)c(=O)n2C [AZD7648] + C[C@@H]1COCCN1C2=NC(=NC(=C2)C3(CC3)[S@](=N)(=O)C)C4=C5C=CNC5=NC=C4 [AZD6738] (first compound max 10 µM, 7x7, partner max 10 µM) | 0.97 | 0.616 | 0.755 | 0.579 | 0.606 | 0.592 | 0.863 | 0.885 | 0.937 | 0.353 | 0.0981 | 0.395 | 0.38 | 0.475
6 | Cc1cc2ncnn2cc1Nc1ncc2c(n1)n(C1CCOCC1)c(=O)n2C [AZD7648] + O=C(c1cc(Cc2n[nH]c(=O)c3ccccc23)ccc1F)N1CCN(C(=O)C2CC2)CC1 [Olaparib] (first compound max 10 µM, 7x7, partner max 10 µM) | 0.897 | 0.521 | 0.657 | 0.0108 | 0.12 | 0.0771 | 0.317 | 0.481 | 0.442 | 0.0663 | 0.12 | 0.226 | 0.158 | 0.321
7 | NC1(C(=O)N[C@@H](CCO)c2ccc(Cl)cc2)CCN(c2ncnc3[nH]ccc23)CC1 [Capivasertib] + CC(=O)c1c(C)c2cnc(Nc3ccc(N4CCNCC4)cn3)nc2n(C2CCCC2)c1=O [Palbociclib] (first compound max 10 µM, 7x7, partner max 10 µM) | 0.87 | 0.632 | 0.414 | 0.127 | 0.324 | 0.507 | 0.519 | 0.744 | 0.578 | 0.289 | 0.451 | 0.665 | 0.549 | 0.512
8 | NC1(C(=O)N[C@@H](CCO)c2ccc(Cl)cc2)CCN(c2ncnc3[nH]ccc23)CC1 [Capivasertib] + CC(C)n1c(=O)n(C)c2cnc3cc(F)c(-c4ccc(OCCCN5CCCCC5)nc4)cc3c21 [AZD1390] (first compound max 10 µM, 7x7, partner max 0.3 µM) | 0.51 | 0.508 | 0.258 | 0.0998 | 0.163 | 0.195 | 0.363 | 0.38 | 0.465 | 0.26 | 0.102 | 0.314 | 0.528 | 0.432
